Data as given in US9493401B2, “Glutamate derivatives for topical use as immunomodulatory active ingredient” (PIERRE FABRE DERMO-COSMETIQUE, priority 2012, dated 2016).
Where two headings read alike, the source gives them in different places.

What was measured:
[1] = tested on: human CD4+ lymphocytes; assay: Secretion of cytokines by human CD4+ lymphocytes stimulated with SEB (immuno-regulatory activity); type: cell-based; settings: Lymphocyte, SEB 300 ng/ml, 24 h
[2] = tested on: HaCaT keratinocytes; assay: Secretion of IL8 by HaCaT keratinocytes stimulated with TNFα (anti-inflammatory activity); type: cell-based, human; settings: TNFα 10 ng/ml, 24 h; FIG. 4; in words
Method: The dosage of interleukin 8 is carried out from a sample taken from the supernatant according to the following method: • IL8 is evaluated by ELISA, Duoset IL8 (Ref. DY208E, R&D Systems).

[3] = tested on: NHEK keratinocytes; assay: Gene expression of inflammatory markers of atopic dermatitis in stimulated NHEK keratinocytes (PCR-Array); type: cell-based, human; settings: 24 h, vs stimulated control
Method: The primary keratinocytes (NHEK, normal human epidermal keratinocytes) distributed in 24-well plates are preincubated for 1 hour with the active ingredients and then stimulated for 24 hours with a cocktail of 4 agonists giving the possibility of creating in vitro the physio-pathological environment of atopic dermatitis: 100 ng/ml IL4+100 ng/ml IL13+1 μg/ml Poly I:C+5 μg/ml Pam3CSK4: this model gives the possibility of inducing the inflammation mediated by the overexpressed Th2 cytokines in DA (IL4, IL13) and by the bacterial components (mimicked by Pam3CSK4, TLR-2 ligand) and viral components (mimicked by Poly I:C, TLR-3 ligand) of DA. Analysis of the gene expression of the markers of DA is conducted in a PCR-Array with 48 genes and repeated on 3 different donors of NHEK.
For the whole of the markers, the RQ (Relative Quantity) of less than 0.5, at 5 h or 24 h, indicates significant inhibition: • inhibition of the TSLP marker involved in the lymphocyte Th2 polarization and specific of AD; • inhibition of the inflammatory cytokines IL1A, IL8, CSF2, IFNB1, VEGF; • inhibition of the chemokines CCL, CXCL, involved in the recruitment, cutaneous infiltration, and activation of the inflammatory cells (leucocytes, lymphocytes, Th1 and Th2 lymphocytes, monocytes).

[4] = read-out: inhibition of the production of IL-2
[5] = read-out: inhibition of the production of IL-4
[6] = read-out: inhibition of the production of IL-17

With `CCCCCCCCCOC(=O)CC[C@H](N)C(=O)O` [Example 3, 5-(n-nonyl)-L-glutamate or 2-amino-5-(nonyloxy)-5-oxopentanoic acid] as the molecule, how does the inhibition at 300 µM [1, 4] read?
Its inhibition at 300 µM is 63%.

What about the inhibition at 300 µM [1, 5] of the same molecule?
The inhibition at 300 µM was 70%.

And the inhibition at 300 µM [1, 6]?
The inhibition at 300 µM was 54%.

And the “anti-inflammatory activity towards the production of IL-8” value [2]?
The value was “anti-inflammatory activity”.

With `CCCCCCCCCCCCOC(=O)CC[C@H](N)C(=O)O` [Example 4, 5-(n-dodecyl)-L-glutamate or 2-amino-5-(dodecyloxy)-5-oxopentanoic acid] as the molecule, how does the melting point read?
Its melting point is 189.9 °C.

Which melting point does the source give for `CCCCCCCCCCCCCCOC(=O)CC[C@H](N)C(=O)O` [Example 5, 5-(n-tetradecyl)-L-glutamate or 2-amino-5-oxo-5(tetradecyl)pentanoic acid] here?
Its melting point is 184.8 °C.

With `CCCCCCCCCCCCCCCCOC(=O)CC[C@H](N)C(=O)O` [Example 6, 5-(n-hexadecyl)-L-glutamate or 2-amino-5-(hexadecyloxy)-5-oxopentanoic acid] as the molecule, how does the melting point read?
The melting point was 179.3 °C.

For `CCCCCCCCCCCCCCCCCCOC(=O)CC[C@H](N)C(=O)O` [Example 7, 5-(n-octadecyl)-L-glutamate or 2-amino-5-(octadecyloxy)-5-oxopentanoic acid], which melting point is on record?
Its melting point is 180.5 °C.

Which melting point does the source give for `CC(C)CCCC(C)CCOC(=O)CC[C@H](N)C(=O)O` (stereo partly drawn) [Example 8, 5-(3,7-dimethyloctyl)-L-glutamate or 2-amino-5(3,7-dimethyloctyloxy)-5-oxo-pentanoic acid] here?
Its melting point is 150.8 °C.

What about the inhibition at 300 µM [1, 4] of the same molecule?
The inhibition at 300 µM was 29%.

Which melting point does the source give for `CCCCC(CC)COC(=O)CC[C@H](N)C(=O)O` (stereo partly drawn) [Example 12, 5-(2-ethylhexyl)-L-glutamate or 2-amino-5(2-ethylhexyloxy)-5-oxopentanoic acid] here?
The melting point was 157.9 °C.

What about the “CCL2 (MCP-1) gene expression” value ([3]; 100 μM) of the same molecule?
Its value is 0.48 RQ.

And the “CCL3 (MIP-1α) gene expression” value ([3]; 100 μM)?
The value was 0.51 RQ.

And the “CCL4 (MIP-1β) gene expression” value ([3]; 100 μM)?
Its value is 0.14 RQ.

And the “CCL5 (RANTES) gene expression” value ([3]; 100 μM)?
Its value is 0.42 RQ.

What about the “CCL20 (MIP-3α) gene expression” value ([3]; 100 μM) of the same molecule?
Its value is 0.13 RQ.

And the “CSF2 (GMCSF) gene expression” value ([3]; 100 μM)?
The value was 1.55 RQ.

What about the “CXCL1 (GRO-α) gene expression” value ([3]; 100 μM) of the same molecule?
Its value is 0.33 RQ.

And the “CXCL2 (MIP-2α) gene expression” value ([3]; 100 μM)?
The value was 0.06 RQ.

And the “CXCL9 (Gamma-interferon-induced monokine) gene expression” value ([3]; 100 μM)?
Its value is 0.20 RQ.

What about the “CXCL10 (IP-10) gene expression” value ([3]; 100 μM) of the same molecule?
Its value is 0.18 RQ.

And the “CXCL11 (I-TAC) gene expression” value ([3]; 100 μM)?
The value was 0.14 RQ.

What about the “IFNB1 (Interferon beta 1) gene expression” value ([3]; 100 μM) of the same molecule?
The value was 0.19 RQ.

What about the “IL1A (Interleukin 1, alpha) gene expression” value ([3]; 100 μM) of the same molecule?
Its value is 0.53 RQ.

What about the “IL8 (Interleukin 8) gene expression” value ([3]; 100 μM) of the same molecule?
Its value is 0.29 RQ.

What about the “TSLP (Thymic stromal lymphopoietin) gene expression” value ([3]; 100 μM) of the same molecule?
The value was 0.20 RQ.

What about the “VEGFC (Vascular endothelial growth factor C) gene expression” value ([3]; 100 μM) of the same molecule?
Its value is 0.20 RQ.

And the “CCL3 (MIP-1α) gene expression” value ([3]; 300 μM)?
Its value is 0.06 RQ.

What about the “CCL4 (MIP-1β) gene expression” value ([3]; 300 μM) of the same molecule?
Its value is 0.02 RQ.

What about the “CCL5 (RANTES) gene expression” value ([3]; 300 μM) of the same molecule?
Its value is 0.20 RQ.

And the “CCL20 (MIP-3α) gene expression” value ([3]; 300 μM)?
Its value is 0.13 RQ.

And the “CSF2 (GMCSF) gene expression” value ([3]; 300 μM)?
The value was 0.33 RQ.

And the “CXCL1 (GRO-α) gene expression” value ([3]; 300 μM)?
The value was 0.36 RQ.

And the “CXCL2 (MIP-2α) gene expression” value ([3]; 300 μM)?
The value was 0.32 RQ.

And the “CXCL9 (Gamma-interferon-induced monokine) gene expression” value ([3]; 300 μM)?
Its value is 0.29 RQ.

And the “CXCL10 (IP-10) gene expression” value ([3]; 300 μM)?
Its value is 0.06 RQ.

What about the “CXCL11 (I-TAC) gene expression” value ([3]; 300 μM) of the same molecule?
The value was 0.15 RQ.

And the “IFNB1 (Interferon beta 1) gene expression” value ([3]; 300 μM)?
The value was 0.26 RQ.

What about the “IL1A (Interleukin 1, alpha) gene expression” value ([3]; 300 μM) of the same molecule?
Its value is 0.53 RQ.

What about the “IL8 (Interleukin 8) gene expression” value ([3]; 300 μM) of the same molecule?
The value was 0.18 RQ.

And the “TSLP (Thymic stromal lymphopoietin) gene expression” value ([3]; 300 μM)?
The value was 0.54 RQ.

And the “VEGFC (Vascular endothelial growth factor C) gene expression” value ([3]; 300 μM)?
Its value is 0.50 RQ.

What about the inhibition at 300 µM ([1]; read-out: inhibition of the production of IFNγ) of the same molecule?
Its inhibition at 300 µM is 77%.

What about the inhibition at 300 µM ([1]; read-out: inhibition of the production of IL1β) of the same molecule?
Its inhibition at 300 µM is 80%.

What about the inhibition at 300 µM ([1]; read-out: inhibition of the production of IL5) of the same molecule?
Its inhibition at 300 µM is 77%.

And the inhibition at 300 µM ([1]; read-out: inhibition of the production of IL6)?
The inhibition at 300 µM was 44%.

What about the inhibition at 300 µM ([1]; read-out: inhibition of the production of IL10) of the same molecule?
Its inhibition at 300 µM is 87%.

What about the inhibition at 300 µM ([1]; read-out: inhibition of the production of IL13) of the same molecule?
Its inhibition at 300 µM is 84%.

What about the inhibition at 300 µM [1, 4] of the same molecule?
The inhibition at 300 µM was 43%.

What about the inhibition at 300 µM [1, 5] of the same molecule?
The inhibition at 300 µM was 69%.

What about the inhibition at 300 µM [1, 6] of the same molecule?
The inhibition at 300 µM was 86%.

What about the inhibition at 300 µM ([1]; read-out: inhibition of the production of TNFα) of the same molecule?
The inhibition at 300 µM was 18%.

Which “anti-inflammatory activity towards the production of IL-8” value [2] does the source give for `N[C@@H](CCC(=O)O)C(=O)O` [glutamic acid, reference compound] here?
Its value is “not again found”.
